Non-standard residues stand in square brackets, D forms with d. Residues, ends and D or L forms follow the SMILES beside them.
tested on: S. aureus JAR; type: cell-based; settings: JAR, 2 h
Protocol: S. aureus JAR is described in Campoccia et al. (Int. J. Artif. Organs, 2008 September; 31(9):841-7).
For the in vitro killing assay with P10 variants, S. aureus JAR ([…] CFU/ml) were incubated for 2 hours at 37° C. with various concentrations of the peptides in PBS or in PBS/human plasma (1/1, v/v). […] The LC99.9 is the average value of two independent experiments.

Row | Structure (SMILES) | LC99.9 (μM) (50% plasma) [µM] | LC99.9 (μM) (PBS) [µM]
1 | CC[C@@H](C)[C@@H](NC(=O)[C@H](NC(=O)[C@@H](CCC(=O)O)NC(=O)[C@@H](CCCCN)NC(=O)[C@@H](CC(C)C)NC(=O)[C@@H](CCCCN)NC(=O)[C@@H](CCCNC(=N)N)NC(=O)[C@@H](Cc1c[nH]c2ccccc12)NC(=O)[C@@H](CC(C)C)NC(=O)[C@@H](CCCNC(=N)N)NC(=O)[C@@H](CCC(N)=O)NC(=O)[C@H](NC(=O)[C@@H](CC(C)C)NC(=O)[C@@H](CCCNC(=N)N)NC(=O)[C@H](NC(=O)[C@@H](CC(C)C)NC(=O)[C@H](N)CCCNC(=N)N)[C@H](C)O)C(C)C)C(C)C)C(=O)N[C@H](CCCCN)C(=O)N[C@H](CCCCN)C(=O)N[C@H](Cc1ccc(O)cc1)C(=O)N[C@H](CCC(=O)O)C(=O)N[C@H](CCCNC(=N)N)C(=O)N[C@H](C)C(=O)N[C@H](CC(C)C)C(N)=O [Peptide 1241-03, rltrlvqrlwrklkevikkyeralB] (H-[dR][dL][dT][dR][dL][dV][dQ][dR][dL][dW][dR][dK][dL][dK][dE][dV][dI][dK][dK][dY][dE][dR][dA][dL]-NH2) | >102.4 | 3.2
2 | CC[C@H](C)[C@H](NC(=O)[C@H](CCCCN)NC(=O)[C@H](CCCCN)NC(=O)[C@H](Cc1ccc(O)cc1)NC(=O)[C@H](CCC(=O)O)NC(=O)[C@H](CCCNC(=N)N)NC(=O)[C@H](C)NC(=O)[C@@H](CC(C)C)NC(C)=O)C(=O)N[C@H](C(=O)N[C@@H](CCC(=O)O)C(=O)N[C@@H](CCCCN)C(=O)N[C@@H](CC(C)C)C(=O)N[C@@H](CCCCN)C(=O)N[C@@H](CCCNC(=N)N)C(=O)N[C@@H](Cc1c[nH]c2ccccc12)C(=O)N[C@@H](CC(C)C)C(=O)N[C@@H](CCCNC(=N)N)C(=O)N[C@@H](CCC(N)=O)C(=O)N[C@H](C(=O)N[C@@H](CC(C)C)C(=O)N[C@@H](CCCNC(=N)N)C(=O)N[C@H](C(=O)N[C@@H](CC(C)C)C(=O)N[C@@H](CCCNC(=N)N)C(N)=O)[C@@H](C)O)C(C)C)C(C)C [Peptide 1301-1, JlAREYKKIVEKLKRWLRQVLRTLRB] (Ac-[dL]AREYKKIVEKLKRWLRQVLRTLR-NH2) | 38.4 | 0.6
3 | CC[C@H](C)[C@H](NC(=O)[C@H](CCCCN)NC(=O)[C@H](CCCCN)NC(=O)[C@H](Cc1ccc(O)cc1)NC(=O)[C@H](CCC(=O)O)NC(=O)[C@H](CCCNC(=N)N)NC(=O)[C@@H](C)NC(=O)[C@H](CC(C)C)NC(C)=O)C(=O)N[C@H](C(=O)N[C@@H](CCC(=O)O)C(=O)N[C@@H](CCCCN)C(=O)N[C@@H](CC(C)C)C(=O)N[C@@H](CCCCN)C(=O)N[C@@H](CCCNC(=N)N)C(=O)N[C@@H](Cc1c[nH]c2ccccc12)C(=O)N[C@@H](CC(C)C)C(=O)N[C@@H](CCCNC(=N)N)C(=O)N[C@@H](CCC(N)=O)C(=O)N[C@H](C(=O)N[C@@H](CC(C)C)C(=O)N[C@@H](CCCNC(=N)N)C(=O)N[C@H](C(=O)N[C@@H](CC(C)C)C(=O)N[C@@H](CCCNC(=N)N)C(N)=O)[C@@H](C)O)C(C)C)C(C)C [Peptide 1301-2, JLaREYKKIVEKLKRWLRQVLRTLRB] (Ac-L[dA]REYKKIVEKLKRWLRQVLRTLR-NH2) | 38.4 | 0.6
4 | CC[C@H](C)[C@H](NC(=O)[C@H](CCCCN)NC(=O)[C@H](CCCCN)NC(=O)[C@H](Cc1ccc(O)cc1)NC(=O)[C@H](CCC(=O)O)NC(=O)[C@@H](CCCNC(=N)N)NC(=O)[C@H](C)NC(=O)[C@H](CC(C)C)NC(C)=O)C(=O)N[C@H](C(=O)N[C@@H](CCC(=O)O)C(=O)N[C@@H](CCCCN)C(=O)N[C@@H](CC(C)C)C(=O)N[C@@H](CCCCN)C(=O)N[C@@H](CCCNC(=N)N)C(=O)N[C@@H](Cc1c[nH]c2ccccc12)C(=O)N[C@@H](CC(C)C)C(=O)N[C@@H](CCCNC(=N)N)C(=O)N[C@@H](CCC(N)=O)C(=O)N[C@H](C(=O)N[C@@H](CC(C)C)C(=O)N[C@@H](CCCNC(=N)N)C(=O)N[C@H](C(=O)N[C@@H](CC(C)C)C(=O)N[C@@H](CCCNC(=N)N)C(N)=O)[C@@H](C)O)C(C)C)C(C)C [Peptide 1301-3, JLArEYKKIVEKLKRWLRQVLRTLRB] (Ac-LA[dR]EYKKIVEKLKRWLRQVLRTLR-NH2) | 38.4 | 0.6
5 | CC[C@H](C)[C@H](NC(=O)[C@H](CCCCN)NC(=O)[C@H](CCCCN)NC(=O)[C@H](Cc1ccc(O)cc1)NC(=O)[C@@H](CCC(=O)O)NC(=O)[C@H](CCCNC(=N)N)NC(=O)[C@H](C)NC(=O)[C@H](CC(C)C)NC(C)=O)C(=O)N[C@H](C(=O)N[C@@H](CCC(=O)O)C(=O)N[C@@H](CCCCN)C(=O)N[C@@H](CC(C)C)C(=O)N[C@@H](CCCCN)C(=O)N[C@@H](CCCNC(=N)N)C(=O)N[C@@H](Cc1c[nH]c2ccccc12)C(=O)N[C@@H](CC(C)C)C(=O)N[C@@H](CCCNC(=N)N)C(=O)N[C@@H](CCC(N)=O)C(=O)N[C@H](C(=O)N[C@@H](CC(C)C)C(=O)N[C@@H](CCCNC(=N)N)C(=O)N[C@H](C(=O)N[C@@H](CC(C)C)C(=O)N[C@@H](CCCNC(=N)N)C(N)=O)[C@@H](C)O)C(C)C)C(C)C [Peptide 1301-4, JLAReYKKIVEKLKRWLRQVLRTLRB] (Ac-LAR[dE]YKKIVEKLKRWLRQVLRTLR-NH2) | 38.4 | 0.6
6 | CC[C@H](C)[C@H](NC(=O)[C@H](CCCCN)NC(=O)[C@H](CCCCN)NC(=O)[C@@H](Cc1ccc(O)cc1)NC(=O)[C@H](CCC(=O)O)NC(=O)[C@H](CCCNC(=N)N)NC(=O)[C@H](C)NC(=O)[C@H](CC(C)C)NC(C)=O)C(=O)N[C@H](C(=O)N[C@@H](CCC(=O)O)C(=O)N[C@@H](CCCCN)C(=O)N[C@@H](CC(C)C)C(=O)N[C@@H](CCCCN)C(=O)N[C@@H](CCCNC(=N)N)C(=O)N[C@@H](Cc1c[nH]c2ccccc12)C(=O)N[C@@H](CC(C)C)C(=O)N[C@@H](CCCNC(=N)N)C(=O)N[C@@H](CCC(N)=O)C(=O)N[C@H](C(=O)N[C@@H](CC(C)C)C(=O)N[C@@H](CCCNC(=N)N)C(=O)N[C@H](C(=O)N[C@@H](CC(C)C)C(=O)N[C@@H](CCCNC(=N)N)C(N)=O)[C@@H](C)O)C(C)C)C(C)C [Peptide 1301-5, JLAREyKKIVEKLKRWLRQVLRTLRB] (Ac-LARE[dY]KKIVEKLKRWLRQVLRTLR-NH2) | 38.4 | 0.6
7 | CC[C@H](C)[C@H](NC(=O)[C@H](CCCCN)NC(=O)[C@@H](CCCCN)NC(=O)[C@H](Cc1ccc(O)cc1)NC(=O)[C@H](CCC(=O)O)NC(=O)[C@H](CCCNC(=N)N)NC(=O)[C@H](C)NC(=O)[C@H](CC(C)C)NC(C)=O)C(=O)N[C@H](C(=O)N[C@@H](CCC(=O)O)C(=O)N[C@@H](CCCCN)C(=O)N[C@@H](CC(C)C)C(=O)N[C@@H](CCCCN)C(=O)N[C@@H](CCCNC(=N)N)C(=O)N[C@@H](Cc1c[nH]c2ccccc12)C(=O)N[C@@H](CC(C)C)C(=O)N[C@@H](CCCNC(=N)N)C(=O)N[C@@H](CCC(N)=O)C(=O)N[C@H](C(=O)N[C@@H](CC(C)C)C(=O)N[C@@H](CCCNC(=N)N)C(=O)N[C@H](C(=O)N[C@@H](CC(C)C)C(=O)N[C@@H](CCCNC(=N)N)C(N)=O)[C@@H](C)O)C(C)C)C(C)C [Peptide 1301-6, JLAREYkKIVEKLKRWLRQVLRTLRB] (Ac-LAREY[dK]KIVEKLKRWLRQVLRTLR-NH2) | 38.4 | 0.6
8 | CC[C@H](C)[C@H](NC(=O)[C@@H](CCCCN)NC(=O)[C@H](CCCCN)NC(=O)[C@H](Cc1ccc(O)cc1)NC(=O)[C@H](CCC(=O)O)NC(=O)[C@H](CCCNC(=N)N)NC(=O)[C@H](C)NC(=O)[C@H](CC(C)C)NC(C)=O)C(=O)N[C@H](C(=O)N[C@@H](CCC(=O)O)C(=O)N[C@@H](CCCCN)C(=O)N[C@@H](CC(C)C)C(=O)N[C@@H](CCCCN)C(=O)N[C@@H](CCCNC(=N)N)C(=O)N[C@@H](Cc1c[nH]c2ccccc12)C(=O)N[C@@H](CC(C)C)C(=O)N[C@@H](CCCNC(=N)N)C(=O)N[C@@H](CCC(N)=O)C(=O)N[C@H](C(=O)N[C@@H](CC(C)C)C(=O)N[C@@H](CCCNC(=N)N)C(=O)N[C@H](C(=O)N[C@@H](CC(C)C)C(=O)N[C@@H](CCCNC(=N)N)C(N)=O)[C@@H](C)O)C(C)C)C(C)C [Peptide 1301-7, JLAREYKkIVEKLKRWLRQVLRTLRB] (Ac-LAREYK[dK]IVEKLKRWLRQVLRTLR-NH2) | 25.6 | 0.6
9 | CC[C@@H](C)[C@@H](NC(=O)[C@H](CCCCN)NC(=O)[C@H](CCCCN)NC(=O)[C@H](Cc1ccc(O)cc1)NC(=O)[C@H](CCC(=O)O)NC(=O)[C@H](CCCNC(=N)N)NC(=O)[C@H](C)NC(=O)[C@H](CC(C)C)NC(C)=O)C(=O)N[C@H](C(=O)N[C@@H](CCC(=O)O)C(=O)N[C@@H](CCCCN)C(=O)N[C@@H](CC(C)C)C(=O)N[C@@H](CCCCN)C(=O)N[C@@H](CCCNC(=N)N)C(=O)N[C@@H](Cc1c[nH]c2ccccc12)C(=O)N[C@@H](CC(C)C)C(=O)N[C@@H](CCCNC(=N)N)C(=O)N[C@@H](CCC(N)=O)C(=O)N[C@H](C(=O)N[C@@H](CC(C)C)C(=O)N[C@@H](CCCNC(=N)N)C(=O)N[C@H](C(=O)N[C@@H](CC(C)C)C(=O)N[C@@H](CCCNC(=N)N)C(N)=O)[C@@H](C)O)C(C)C)C(C)C [Peptide 1301-8, JLAREYKKiVEKLKRWLRQVLRTLRB] (Ac-LAREYKK[dI]VEKLKRWLRQVLRTLR-NH2) | 38.4 | 0.6
10 | CC[C@H](C)[C@H](NC(=O)[C@H](CCCCN)NC(=O)[C@H](CCCCN)NC(=O)[C@H](Cc1ccc(O)cc1)NC(=O)[C@H](CCC(=O)O)NC(=O)[C@H](CCCNC(=N)N)NC(=O)[C@H](C)NC(=O)[C@H](CC(C)C)NC(C)=O)C(=O)N[C@@H](C(=O)N[C@@H](CCC(=O)O)C(=O)N[C@@H](CCCCN)C(=O)N[C@@H](CC(C)C)C(=O)N[C@@H](CCCCN)C(=O)N[C@@H](CCCNC(=N)N)C(=O)N[C@@H](Cc1c[nH]c2ccccc12)C(=O)N[C@@H](CC(C)C)C(=O)N[C@@H](CCCNC(=N)N)C(=O)N[C@@H](CCC(N)=O)C(=O)N[C@H](C(=O)N[C@@H](CC(C)C)C(=O)N[C@@H](CCCNC(=N)N)C(=O)N[C@H](C(=O)N[C@@H](CC(C)C)C(=O)N[C@@H](CCCNC(=N)N)C(N)=O)[C@@H](C)O)C(C)C)C(C)C [Peptide 1301-9, JLAREYKKIvEKLKRWLRQVLRTLRB] (Ac-LAREYKKI[dV]EKLKRWLRQVLRTLR-NH2) | 38.4 | 0.6

same assay, conditions: statements referring to Tables 2-6

Row | Structure (SMILES) | antimicrobial activity, in words
11 | CC[C@@H](C)[C@@H](NC(=O)[C@H](NC(=O)[C@@H](CCC(=O)O)NC(=O)[C@@H](CCCCN)NC(=O)[C@@H](CC(C)C)NC(=O)[C@@H](CCCCN)NC(=O)[C@@H](CCCNC(=N)N)NC(=O)[C@@H](Cc1c[nH]c2ccccc12)NC(=O)[C@@H](CC(C)C)NC(=O)[C@@H](CCCNC(=N)N)NC(=O)[C@@H](CCC(N)=O)NC(=O)[C@H](NC(=O)[C@@H](CC(C)C)NC(=O)[C@@H](CCCNC(=N)N)NC(=O)[C@H](NC(=O)[C@@H](CC(C)C)NC(=O)[C@H](N)CCCNC(=N)N)[C@H](C)O)C(C)C)C(C)C)C(=O)N[C@H](CCCCN)C(=O)N[C@H](CCCCN)C(=O)N[C@H](Cc1ccc(O)cc1)C(=O)N[C@H](CCC(=O)O)C(=O)N[C@H](CCCNC(=N)N)C(=O)N[C@H](C)C(=O)N[C@H](CC(C)C)C(N)=O [Peptide 1241-03, rltrlvqrlwrklkevikkyeralB] (H-[dR][dL][dT][dR][dL][dV][dQ][dR][dL][dW][dR][dK][dL][dK][dE][dV][dI][dK][dK][dY][dE][dR][dA][dL]-NH2) | possesses antimicrobial activity
